Assay results published in US10981932B2, “Macrocyclic indole derivatives” (Bayer Aktiengesellschaft, priority 2016, dated 2021).
Where two headings read alike, the source gives them in different places.

Legend:
SUDHL5 [1] = test: Induction of caspase-3/7 activity (Caspase-Glo 3/7), SUDHL5; format: cell-based; conditions: caspase-3/7 induction, SUDHL5 cells, 3 h treatment, median
Outline: (§1)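 DLBCL cells treated with compounds for 3 h at 37 °C, then caspase-3/7 activity read by Caspase-Glo 3/7 luminescence. Medium-only background subtracted; EC50 fitted with C0 fixed at 1 and top set to the reference compound's maximal induction.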

SUDHL5 [2] = test: Induction of cytotoxicity (CellTiter-Glo, 5 h), SUDHL5
A2780 = test: Anti-proliferative effect (CellTiter-Glo, 72 h), A2780; format: cell-based; conditions: A2780 cells, median, read-out: IC50 antiproliferation assay A2780 [M] (median)
Outline: (§2)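 Cells were treated with compounds for 72 h at 37 °C in a humidified incubator, and viability was measured by CellTiter-Glo luminescence. A parallel day 0 plate, read the same way, gave the time zero baseline.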

MCL-1 = MCL-1 (Homo sapiens, UniProt Q07820); test: Protein-protein interaction assay MCL-1/Noxa BH3 peptide (MCL-1 assay), TR-FRET; format: binding; conditions: MBP-MCL-1 / Noxa BH3-derived peptide, median
MCL-1, sequence (Q07820 whole entry): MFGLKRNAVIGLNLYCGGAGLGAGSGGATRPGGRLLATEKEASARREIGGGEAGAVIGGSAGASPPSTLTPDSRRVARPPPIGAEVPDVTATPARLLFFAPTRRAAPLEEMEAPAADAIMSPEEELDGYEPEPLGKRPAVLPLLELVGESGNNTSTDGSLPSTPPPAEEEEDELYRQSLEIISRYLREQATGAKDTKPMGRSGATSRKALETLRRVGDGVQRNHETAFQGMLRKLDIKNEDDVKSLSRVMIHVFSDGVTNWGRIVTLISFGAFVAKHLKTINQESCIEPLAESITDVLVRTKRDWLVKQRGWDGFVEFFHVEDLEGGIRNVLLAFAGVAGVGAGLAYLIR
Outline: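 TR-FRET, 665/622 nm emission ratio (excitation 330–350 nm), measured MCL-1/Noxa complex formation. 1 nM MBP-MCL-1, 50 mM Tris/HCl pH 7, 0.1% BGG, 2 mM DTT. Incubation 1 h at 22 °C, then overnight at 4 °C. IC50 by 4-parameter regression, normalized to DMSO (0%) and no-MCL-1 (100%) controls.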

SUDHL5 [3] = test: Anti-proliferative effect (CellTiter-Glo, 72 h), SUDHL5; format: cell-based; conditions: SUDHL5 cells, antiproliferation, 72 h incubation, median, read-out: Antiproli SUDHL5 [M] (median)
Outline: as §2

SUDHL10 [4] = test: Induction of caspase-3/7 activity (Caspase-Glo 3/7), SUDHL10; format: cell-based; conditions: caspase-3/7 induction, SUDHL10 cells, 3 h treatment, median
Outline: as §1

SUDHL10 [5] = test: Induction of cytotoxicity (CellTiter-Glo, 5 h), SUDHL10
Experimental: Therefore, cytotoxicity assays were run in parallel in SUDHL5 and SUDHL10 cells.
The different cell lines were plated in culture medium (RPMI 1640 [GIBCO #22400-089]supplemented with 10% Fetal Bovine Serum) at a density of 3.300 cells in 30 μl/well in a sterile, solid black, flat bottom, polystyrene, TC-treated 384-well microplate (Corning #3571) using Multidrop Combi Reagent Dispenser. As a control, medium without cells was also added to the plate. Cells were incubated in a humidified incubator at 37° C. overnight. On the next day, the cells were treated with compounds (stock solution, 10 mM in DMSO) using the HP D300 Digital Dispenser in a concentration range of 3.3×10e-5 M (33 μM) to 5×10e-9 M (5 nM) in a single-dot curve with at least 16 dilutions and a DMSO concentration of 0.33%. Rim wells were excluded. The cells were incubated for 5 h hours in a humidified incubator at 37° C. After this incubation, 30 μl of CellTiter-Glo@ Luminescent Cell Viability reagent (Promega, G7573) was added to each well using the Multidrop Combi Reagent Dispenser, followed by 15 min incubation on a shaker at room temperature. Finally, luminescence was read at 0.1 ms, with a gain of 3000 using the PHERAstar FS microplate reader (BMG Labtech).
The Bella DRC Master Sheet was used to calculate IC50s, with fixed CI=0 and C0=1.

OPM2 = test: Anti-proliferative effect (CellTiter-Glo, 72 h), OPM2; format: cell-based; conditions: OPM2 cells, median, read-out: IC50 antiproliferation assay OPM2 [M] (median)
Outline: as §2

SUDHL10 [6] = test: Anti-proliferative effect (CellTiter-Glo, 72 h), SUDHL10; format: cell-based; conditions: SUDHL10 cells, antiproliferation, 72 h incubation, median, read-out: Antiproli SUDHL10 [M] (median)
Outline: as §2

[7] = Homo sapiens, SU-DHL-5, 5 h, read-out: Cytotox SUDHL5 [M] (median), SUDHL5 cells, cytotoxicity induction, CellTiter-Glo, 5 h incubation, median
[8] = Homo sapiens, SU-DHL10, 5 h, read-out: Cytotox SUDHL10 [M] (median), SUDHL10 cells, cytotoxicity induction, CellTiter-Glo, 5 h incubation, median
[9] = read-out: Cytotox SUDHL10 [M] (median), SUDHL10 cells, cytotoxicity induction, CellTiter-Glo, 5 h incubation, median
[10] = read-out: Cytotox SUDHL5 [M] (median), SUDHL5 cells, cytotoxicity induction, CellTiter-Glo, 5 h incubation, median

| SMILES | EC50 (SUDHL5 [1]; Homo sapiens, SU-DHL-5, 3 h) | IC50 (A2780; Homo sapiens, A2780, 72 h) | IC50 (MCL-1) | IC50 (SUDHL5 [3]; Homo sapiens, SU-DHL-5, 72 h) | EC50 (SUDHL10 [4]; Homo sapiens, SU-DHL10, 3 h) | IC50 (SUDHL10 [6]; Homo sapiens, SU-DHL10, 72 h) | IC50 (A2780) | EC50 (SUDHL5 [1]) | IC50 (SUDHL5 [3]) | EC50 (SUDHL10 [4]) | IC50 (SUDHL10 [6]) | IC50 (SUDHL5 [2]; [7]) | IC50 (SUDHL10 [5]; [8]) | IC50 (OPM2; Homo sapiens, OPM-2, 72 h) | IC50 (SUDHL10 [5]; [9]) | IC50 (OPM2) | IC50 (SUDHL5 [2]; [10]) |
| --- | --- | --- | --- | --- | --- | --- | --- | --- | --- | --- | --- | --- | --- | --- | --- | --- | --- |
| CCN(CC)S(=O)(=O)N1CCN(c2ccc(OCc3nn(C)c4c3-c3cccc5c(CCCOc6cccc7ccccc67)c(C(=O)O)n(c35)CCCCOC4)cc2)CC1 (racemic) [Example 1-3, (rac)-3-({4-[4-(diethylsulfamoyl)piperazin-1-yl]phenoxy}methyl)-1-methyl-7-[3-(naphthalen-1-yloxy)propyl]-1,10,11,12,13,15-hexahydropyrazolo[4′,3′:9,10][1,6]oxazacycloundecino[8,7,6-hi]indole-8-carboxylic Acid] | 2 µM | 4.86e-06 M | 0.00378 µM | 1.27e-06 M | 2.36 µM | 1.9e-06 M | – | – | – | – | – | 2.68e-06 M | 2.64e-06 M | 2.11e-06 M | – | – | – |
| CN1CCN(c2ccc(OCc3nn(C)c4c3-c3cccc5c(CCCOc6cccc7ccccc67)c(C(=O)O)n(c35)CCCCOC4)cc2)CC1 (racemic) [Example 1-7, (rac)-1-methyl-3-{[4-(4-methylpiperazin-1-yl)phenoxy]methyl}-7-[3-(naphthalen-1-yloxy)propyl]-1,10,11,12,13,15-hexahydropyrazolo[4′,3′:9,10][1,6]oxazacycloundecino[8,7,6-hi]indole-8-carboxylic Acid] | > 33 µM | > 3.3e-05 M | 0.0158 µM | 1.63e-06 M | > 33 µM | > 3.3e-05 M | – | – | – | – | – | > 3.3e-05 M | 8.17e-06 M | > 3.3e-05 M | – | – | – |
| CN(C)S(=O)(=O)N1CCN(c2ccc(OCc3nn(C)c4c3-c3cccc5c(CCCOc6cccc7ccccc67)c(C(=O)O)n(c35)CC=CCOC4)cc2)CC1 (racemic) [Example 1-17, (rac)-(E/Z)-3-({4-([4-(dimethylsulfamoyl)piperazin-1-yl]phenoxy}methyl)-1-methyl-7-[3-(naphthalen-1-yloxy)propyl]-1,10,13,15-tetrahydropyrazolo[4′,3′:9,10][1,6]oxazacycloundecino[8,7,6-hi]indole-8-carboxylic Acid] | 3.73 µM | 8.94e-06 M | 0.0127 µM | 2.99e-06 M | 4.39 µM | 4.25e-06 M | – | – | – | – | – | 4.36e-06 M | 6.88e-06 M | 4.37e-06 M | – | – | – |
| Cn1nc(COc2ccc(N3CCN(C(=O)C4CC4)CC3)cc2)c2c1COCCCCn1c(C(=O)O)c(CCCOc3cccc4ccccc34)c3cccc-2c31 (racemic) [Example 1-21, (rac)-3-({4-[4-(cyclopropylcarbonyl)piperazin-1-yl]phenoxy}methyl)-1-methyl-7-[3-(naphthalen-1-yloxy)propyl]-10,11,12,13,15-hexahydropyrazolo[4′,3′:9,10][1,6]oxazacycloundecino[8,7,6-hi]indole-8-carboxylic Acid] | 2.34 µM | 1.29e-05 M | 0.00106 µM | 2.41e-06 M | 2.82 µM | 2.49e-06 M | – | – | – | – | – | 2.31e-06 M | 3.26e-06 M | 3.61e-06 M | – | – | – |
| CC(=O)N1CCN(c2ccc(OCc3nn(C)c4c3-c3cccc5c(CCCOc6cccc7ccccc67)c(C(=O)O)n(c35)CCCCOC4)cc2)CC1 (racemic) [Example 1-24, (rac)-3-{[4-(4-acetylpiperazin-1-yl)phenoxy]methyl}-1-methyl-7-[3-(naphthalen-1-yloxy)propyl]-1,10,11,12,13,15-hexahydropyrazolo[4′,3′:9,10][1,6]oxazacycloundecino[8,7,6-hi]indole-8-carboxylic Acid] | 4.28 µM | > 3.3e-05 M | 0.00231 µM | 4.7e-06 M | 6.61 µM | 6.52e-06 M | – | – | – | – | – | 2.23e-06 M | 4.33e-06 M | 2.97e-05 M | – | – | – |
| CN1CCCn2c(C(=O)O)c(CCCOc3cccc4ccccc34)c3cccc(c32)-c2c(COc3ccc(N4CCN(S(=O)(=O)N(C)C)CC4)cc3)nn(C)c2C1 (single isomer, unassigned; enantiomer 2) [Example 1-16, 11-({4-[4-(dimethylsulfamoyl)piperazin-1-yl]phenoxy}methyl)-7,9-dimethyl-1-[3-(naphthalen-1-yloxy)propyl]-4,5,6,7,8,9-hexahydropyrazolo[3′,4′:7,8][1,5]diazecino[9,10,1-hi]indole-2-carboxylic Acid (Enantiomer 2)] | – | – | 0.0848 µM | – | – | – | – | > 33 µM | 8.21e-06 M | > 33 µM | 5.63e-06 M | – | – | – | > 3.3e-05 M | 1.15e-05 M | > 3.3e-05 M |
| Cc1nn(C)c2c1-c1cccc3c(CCCOc4cccc5ccccc45)c(C(=O)O)n(c13)CCCCN2 [Example 003, (rac)-9,11-dimethyl-1-[3-(1-naphthyloxy)propyl]-4,5,6,7,8,9-hexahydropyrazolo[4′,3′:4,5][1,6]diazecino[3,2,1-hi]indole-2-carboxylic Acid] | > 33 µM | – | 0.0433 µM | > 3.3e-05 M | 29.1 µM | 1.54e-05 M | – | – | – | – | – | > 3.3e-05 M | > 3.3e-05 M | > 3.3e-05 M | – | – | – |

Continued, in another order:

| EC50 (SUDHL5 [1]; Homo sapiens, SU-DHL-5, 3 h) | IC50 (A2780; Homo sapiens, A2780, 72 h) | IC50 (MCL-1) | IC50 (SUDHL5 [3]; Homo sapiens, SU-DHL-5, 72 h) | EC50 (SUDHL10 [4]; Homo sapiens, SU-DHL10, 3 h) | IC50 (SUDHL10 [6]; Homo sapiens, SU-DHL10, 72 h) | IC50 (A2780) | EC50 (SUDHL5 [1]) | IC50 (SUDHL5 [3]) | EC50 (SUDHL10 [4]) | IC50 (SUDHL10 [6]) | SMILES | IC50 (SUDHL5 [2]; [7]) | IC50 (SUDHL10 [5]; [8]) | IC50 (OPM2; Homo sapiens, OPM-2, 72 h) | IC50 (SUDHL10 [5]; [9]) | IC50 (OPM2) | IC50 (SUDHL5 [2]; [10]) |
| --- | --- | --- | --- | --- | --- | --- | --- | --- | --- | --- | --- | --- | --- | --- | --- | --- | --- |
| 1.22 µM | 8.79e-06 M | – | 9.33e-07 M | 1.94 µM | 1.33e-06 M | – | – | – | – | – | CN(C)S(=O)(=O)N1CCN(c2ccc(OCc3nn(C)c4c3-c3cccc5c(CCCOc6cccc7ccccc67)c(C(=O)O)n(c35)CCCCOC4)cc2)CC1 (racemic) [Example 1-18, (rac)-3-({4-[4-(dimethylsulfamoyl)piperazin-1-yl]phenoxy}methyl)-1-methyl-7-[3-(naphthalen-1-yloxy)propyl]-1,10,11,12,13,15-hexahydropyrazolo[4′,3′:9,10][1,6]oxazacycloundecino[8,7,6-hi]indole-8-carboxylic Acid] | 1.75e-06 M | 2.29e-06 M | 1.57e-06 M | – | – | – |
| 6.95 µM | > 3.3e-05 M | 0.00831 µM | 3.22e-06 M | – | 4.99e-06 M | 2.49e-05 M | – | – | – | – | Cc1nn(C)c2c1-c1cccc3c(CCCOc4cccc5c4CCCC5)c(C(=O)O)n(c13)CCCCOC2 (racemic) [Example 006, (rac)-1,3-dimethyl-7-[3-(5,6,7,8-tetrahydronaphthalen-1-yloxy)propyl]-1,10,11,12,13,15-hexahydropyrazolo[4′,3′:9,10][1,6]oxazacycloundecino[8,7,6-hi]indole-8-carboxylic Acid] | 7.28e-06 M | 1.99e-05 M | 1.9e-05 M | > 3.3e-05 M | > 3.3e-05 M | – |
| – | – | 0.0177 µM | – | – | – | 1.95e-05 M | 12.4 µM | 6.96e-06 M | 9.76 µM | 7.73e-06 M | CN1CCCn2c(C(=O)O)c(CCCOc3cccc4ccccc34)c3cccc(c32)-c2c(CN3CCOCC3)nn(C)c2C1 (single isomer, unassigned; enantiomer 2) [Example 1-44, (−)-7,9-dimethyl-11-(morpholin-4-ylmethyl)-1-[3-(naphthalen-1-yloxy)propyl]-4,5,6,7,8,9-hexahydropyrazolo[3′,4′:7,8][1,5]diazecino[9,10,1-hi]indole-2-carboxylic Acid (Enantiomer 2)] | – | – | – | – | 1.13e-05 M | 1.26e-05 M |
| > 33 µM | – | 0.353 µM | 1.42e-05 M | 22.4 µM | 6.26e-06 M | – | – | – | – | – | Cc1nn(C)c2c1-c1cccc3c(CCCOc4cccc5ccccc45)c(C(=O)O)n(c13)CCCCN2Cc1ccccc1 [Example 002, (rac)-8-benzyl-9,11-dimethyl-1-[3-(1-naphthyloxy)propyl]-4,5,6,7,8,9-hexahydropyrazolo[4′,3′:4,5][1,6]diazecino[3,2,1-hi]indole-2-carboxylic Acid] | 2.12e-05 M | 3.18e-05 M | > 3.3e-05 M | – | – | – |
